In patent US20250163116A1, “NEW METHOD TO TREAT INFECTIOUS DISEASES” (INSERM (INSTITUT NATIONAL DE LA SANTÉ ET DE LA RECHERCHE …, priority 2022, published 2025):

Tests used:
[1] = system: SCID mice grafted with human skin infected with Nm 2C4.3; test: Outcome of meningococcal infection in SCID mice grafted with human skin (survival, with or without antibiotics); type: in vivo; settings: 200 mg kg-1 cefotaxime
Method: A-D, SCID mice grafted with human skin were infected intravenously with Nm 2C4.3 wild-type strain (5×10^6 bacteria); 2 h after bacterial challenge, mice received recombinant human ANGPTL4 (1 μg, intravenously), cefotaxime (200 mg kg-1, intraperitoneally) alone or in combination with ANGPTL4 or vehicle as a control. 18 h following bacterial challenge, ANGPTL4 (1 μg) and cefotaxime (200 mg kg-1) were re-administered. This experiment was performed twice with n=3 or 4 mice per group, using skin from two different donors. A, A schematic representation of the protocol used in vivo. B, Bacteraemia 4, 18, 48 and 72 h post-infection (mean±s.e.m.). C, Survival curve: * P=0.0275; two-sided log-rank Mantel-Cox survival analysis. D, Thrombosis within the skin grafts at 4 h post-infection was assessed by immunofluorescence analysis and quantified as described in FIG. 8 (error bars show mean±s.e.m.; 40 vessels per mouse were analysed; n=4 mice per group; *** P<0.001; two-tailed Student's t-test.
Six-week-old CB17/Icr-Prkdcscid female mice were obtained from Janvier Labs. Human skin tissues were obtained from adult patients undergoing plastic surgery in the Service de Chirurgie Plastique et Reconstructive of the Groupe Hospitalier Saint-Joseph. […] Experimental procedures were performed as previously described in accordance with the guidelines of the Institut National de la Santé et de la Recherche Médicale and conformed to the European ethical legislation (Directive 2010/63/EU). The experimental protocol was approved by the Animal Experimentation Ethics Committee of the Université Paris Descartes (consent forms CEEA34.O.J.L.039.12 and 2018012515596498). […] A skin flap was created and a full thickness human skin graft was placed onto the wound bed. The transplants were held in place with 6-0 non-absorbable monofilament suture materials, and the flap was then sutured above the transplant. Grafted mice were infected 4-6 weeks after human skin transplantation. N. meningitidis was grown overnight at 37° C. on GCB agar plates prepared without iron and supplemented with 15 μM deferoxamine (Desferal, Novartis). Bacterial colonies were harvested and cultured in RPMI media with 1% BSA medium and 0.06 μM deferoxamine with gentle agitation to reach the exponential phase of growth. Bacteria were then resuspended in physiological saline solution. Mice were infected intravenously with 200 μl (5×10^6 bacteria) of this bacterial suspension. A 10 mg dose of human holotransferrin (R&D Systems) was administered intraperitoneally just before infection. Mice were killed at 4 h after infection. Human skin grafts were carefully collected using a sterile cutter. The tissue was washed in PBS and fixed overnight at 4° C. in 4% paraformaldehyde in phosphate buffer. After washing in phosphate buffer, the specimens were embedded in OCT medium and then frozen at −80° C. Sections of the dermis (7 μm thick) were immobilized on Superfrost Plus microscope slides and subjected to immunofluorescence analysis. Sections were incubated with the primary antibodies for 1 h in PBS/3% BSA then DAPI was added to Alexa-conjugated secondary antibodies for 1 h. After additional washing, coverslips were mounted in glycergel (Dako) and were further analysed using a slide scanner (Lamina, Perkin Elmer). Analysis of the images was performed using ImageJ software (NIH). […]
We then analysed whether ANGPTL4 could provide a beneficial effect when administered with antibiotics.

[2] = system: Balb/c mice challenged with LPS; test: LPS-induced endotoxemia (sepsis) in mice; type: in vivo; settings: LPS 5 mg kg-1 i.p.; 2 μg/mouse i.v.
Method: FIG. 9: ANGPTL4 protects against LPS-induced endotoxemia by preventing vascular dysfunction and organ failure. A-B, Balb/c mice received LPS (5 mg kg-1, i.p.); 30 min after LPS challenge, mice received recombinant human ANGPTL4 (2 μg, intravenously), or vehicle as a control. A, A schematic representation of the protocol used. B, Survival curve (n=16 mice per group): **** P<0.0001; two-sided log-rank Mantel-Cox survival analysis. C,D, Balb/c mice received LPS (5 mg kg-1, i.p.); 30 min after LPS challenge, mice received nANGPTL4 (2 μg, intravenously), or vehicle as a control. C, A schematic representation of the protocol used. D, Survival curve (n=6 mice per group): ** P=0.0033; two-sided log-rank Mantel-Cox survival analysis. E, F, Balb/c mice received LPS (5 mg kg-1, i.p.); 30 min after LPS challenge, mice received Peptide 1 (2 μg, intravenously), or vehicle as a control. E, A schematic representation of the protocol used. F, Survival curve (n=6 mice per group): * P=0.0163; two-sided log-rank Mantel-Cox survival analysis. G, Balb/c mice received LPS (5 mg kg-1. i.p.): 30 min after LPS challenge, mice received recombinant human peptide P9 (2 μg. intravenously). or vehicle as a control. Survival curves (n=6 mice per group). *** P<0.001: two-sided log-rank Mantel-Cox survival analysis. H. Balb/c mice received LPS (4 mg kg-1. i.p.) together with anti-ANGPTL4 blocking antibody (10 μg kg-1. i.v) or vehicle as a control. 18 h after LPS challenge. mice were perfused with Evans blue for 1 h. were killed and brain were extracted. Quantification analysis of Evans blue extravasation (n=4 mice per group). Bars and error bars show the mean±s.e.m., respectively, from two independent experiments: *** P<0.001: NS, not significant (P>0.05) one-way ANOVA Tukey's multiple comparison test.
Female BALB/c mice, obtained from Janvier Labs, 9-10 weeks of age, were administered LPS at 5 mg/kg intraperitoneally and survival was monitored for 72 h (n=12 per group). BALB/c mice were randomly divided into 2 groups: LPS and LPS+Angptl4. Angptl4 (2 μg/mice) or vehicle (physiological saline solution) was administered intravenously 30 min after LPS challenge. In some experiments, blood serum, kidney and lung were collected at 18 h post-LPS challenge. Kidney and lungs were fixed in 4% PFA, embedded in paraffin, and 5-μm sections were cut from each block and stained with H&E. The stained sections were observed and acquired using a slide scanner (Lamina, Perkin Elmer). Analysis of the images was performed using ImageJ software (NIH).
Since severe endothelial dysfunction, leading to dysregulation of hemostasis and vascular dysfunction, is central to the progression to organ failure during sepsis, we analysed whether ANGPTL4 could play a protective role in sepsis, using a lipopolysaccharide (LPS)-induced endotoxemia (FIG. 9A). After LPS-challenge (5 mg kg-1, i.p.), all mice died within two days (FIG. 9B).

[3] = system: HDMECs infected with Nm 2C4.3; test: Integrity of HDMEC monolayers infected with N. meningitidis (VE-cadherin at intercellular junctions, immunofluorescence); type: cell-based, human; settings: 1 μg/mL added 30 min after initiation of Nm infection, 2 h 30
Method: FIG. 1. Exogenous ANGPTL4 exerts protective effects on dermal microvascular endothelial cells infected by N. meningitidis. A. HDMECs were infected with Nm 2C4.3 for 30 min and treated with 1 μg/mL of recombinant human ANGPTL4 for 2 h 30. Cells were fixed and stained for cellular actin, VE-cadherin and DAPI and analyzed by fluorescent microscopy. Quantifications of VE-cadherin enrichment at intercellular junctions and of intercellular spaces area were performed on 30 fields with Image J software. Kruskal-Wallis test ** P<0.001; P<0.0001. B. HDMEC were either uninfected or infected with N. meningitidis 2C4.3 for 30 min and treated with 1 μg mL−1 of recombinant human ANGPTL4, its N-terminal portion (nANGPTL4) or its C-terminal portion (cANGPTL4) for 2 h 30. Caspase-3/7 reagent was added to detect apoptosis in real time over 9 h using the IncuCyte® Live-Cell Analysis System
FIG. 2: Vascular protection is conferred by the N-terminal part of ANGPTL4. A, Schematic representation of ANGPTL4 structure. ANGPTL4 contains a N-terminal portion (nANGPTL4, aa 26-164) linked to a C-terminal portion (cANGPTL4, aa 164-406) by a cleavable linker. nANGPTL4 contains a highly conserved lipoprotein lipase (LPL) binding domain (aa 44-55), two cysteines on position 76 and 80 involved in protein oligomerization and a coiled-coil domain (aa 100-143). The C-terminal portion encodes a fibrinogen-like domain. B, HDMECs were infected with Nm 2C4.3 for 30 min and treated with 1 μg/mL of recombinant human ANGPTL4, nANGPTL4 or cANGPTL4 for 2 h 30. Cells were fixed and stained for cellular actin, VE-cadherin and DAPI and analyzed by fluorescent microscopy. B. Quantifications of VE-cadherin enrichment at intercellular junctions and of intercellular spaces area were performed on 30 fields with Image J software. Kruskal-Wallis test ** P<0.001, *** P<0.0001 of four independent experiments performed in triplicate.
FIG. 3: Vascular protection is conferred by a novel binding motif (aa 66-80) present in the N-terminal part of ANGPTL4. A, the indicated peptides were derived from nANGPTL4. B, HDMECs were infected with Nm 2C4.3 for 30 min and treated with 1 μg/mL of each peptides. Quantifications of VE-cadherin enrichment at intercellular junctions was performed on 30 fields with Image J software.
FIG. 4: Vascular protection is conferred by interaction of nANGPTL4 with Syndecan-4. A, HDMECs were infected with Nm 2C4.3 for 30 min and treated with 1 μg/mL of recombinant human ANGPTL4, nANGPTL4 or cANGPTL4 in the absence or in the presence of anti-SDC4 antibody for 2 h 30. Cells were fixed and stained for cellular actin, VE-cadherin and DAPI and analysed by fluorescent microscopy. Quantifications of VE-cadherin enrichment at intercellular junctions and of intercellular spaces area were performed on 30 fields with Image J software. Kruskal-Wallis test ** P<0.001, **** P<0.00001, ns1 P=0.2172; ns2 P>0.999 of four independent experiments performed in triplicate. B, HDMECs were transfected with small interfering RNA (siRNA) against SDC4 or non-targeting siRNA controls for 48 h, infected with Nm 2C4.3 for 30 min and treated with 1 μg/mL of recombinant human ANGPTL4, for 2 h 30. Quantifications of VE-cadherin enrichment at intercellular junctions and of intercellular spaces area were performed on 30 fields with Image J software. Kruskal-Wallis test ** P<0.001, *** P<0.0001, of two independent experiments performed in triplicate.
The day of infection, a suspension of the bacteria from an overnight culture on GCB agar plate was adjusted to OD600=0.05 and incubated for 2 h at 37° C. in a pre-warmed cell culture medium. Cells were infected with bacteria at a multiplicity of infection (MOI) of 100 bacteria per cell (OD=0.1) for 30 minutes, washed twice to remove non-adherent bacteria and infection was allowed to proceed for various periods of time. Cells were then washed and fixed in 4% paraformaldehyde for immunofluorescence analysis. […]

Compound | bactericidal effect (bacteraemia) [1] | mice survival [1] | thrombosis at 4 h post-infection [1] | sepsis-associated mortality / survival rate [2] | protective effect on monolayer integrity (adherens junctions, cell detachment) of infected HDMECs [3]
CO/N=C(\C(=O)N[C@@H]1C(=O)N2C(C(=O)O)=C(COC(C)=O)CS[C@H]12)c1csc(N)n1 [cefotaxime] | strong bactericidal effect | associated with mice survival | did not prevent the triggering of thrombosis | – | –
LSALERRLSACGSAC (Peptide P9) | – | – | – | reduced sepsis-associated mortality rate as efficiently as the full-length protein | completely inhibited infection-induced damages
SALERRLSACGS (Peptide P10) | – | – | – | did not significantly increased the survival rate | no effect
WDEMNVLAHGLLQLGQGLREHAERTRSQLSALERRLSACGSACQGT (Peptide P1) | – | – | – | reduced sepsis-associated mortality rate as efficiently as the full-length protein | sufficient to prevent loss of adherens junctions and cell detachment induced by infection as efficiently as the full-length protein
